Test results reported in ChEMBL document CHEMBL1201862, “PubChem BioAssay data set” (2004).
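Assay format: 96-well plates, 48-hour exposure. The concentration for 50% growth inhibition is given as GI50.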 Activity calls are given as the source filed them. Rule as the data show it: active = GI50 up to about 1.1 µM and inactive = higher.

Assays:
Assay in all cases: growth of human tumour cells (NCI), 48 h
UACC-62 = test system: UACC-62
DMS-114 = test system: DMS-114
SF-268 = test system: SF-268
MDA-MB-435 = test system: MDA-MB-435
A549 = test system: A549
SNB-75 = test system: SNB-75
HL-60 = test system: HL-60
SF-295 = test system: SF-295
SF-539 = test system: SF-539
TK-10 = test system: TK-10
IGROV-1 = test system: IGROV-1
786-0 = test system: 786-0
HOP-18 = test system: HOP-18
A498 = test system: A498
SNB-19 = test system: SNB-19
NCI-H460 = test system: NCI-H460
SN12C = test system: SN12C
HOP-62 = test system: HOP-62
RXF 393 = test system: RXF 393
DMS-273 = test system: DMS-273
BT-549 = test system: BT-549
COLO 205 = test system: COLO 205
DLD-1 = test system: DLD-1
Malme-3M = test system: Malme-3M
SR = test system: SR
U-251 = test system: U-251
SK-MEL-2 = test system: SK-MEL-2
M19-MEL = test system: M19-MEL
PC-3 = test system: PC-3
MCF7 = test system: MCF7
K562 = test system: K562
SNB-78 = test system: SNB-78
CCRF-CEM = test system: CCRF-CEM
KM-20L2 = test system: KM-20L2
OVCAR-8 = test system: OVCAR-8
T47D = test system: T47D
DU-145 = test system: DU-145
Hs-578T = test system: Hs-578T
UO-31 = test system: UO-31
KM12 = test system: KM12
MDA-MB-231 = test system: MDA-MB-231
HT-29 = test system: HT-29
CAKI-1 = test system: CAKI-1
NCI-H522 = test system: NCI-H522
M14 = test system: M14
OVCAR-5 = test system: OVCAR-5
MDA-N = test system: MDA-N
HCT-15 = test system: HCT-15
NCI-H226 = test system: NCI-H226
OVCAR-4 = test system: OVCAR-4
MOLT-4 = test system: MOLT-4
SK-OV-3 = test system: SK-OV-3
HOP-92 = test system: HOP-92
LXFL 529 = test system: LXFL 529
UACC-257 = test system: UACC-257
RPMI-8226 = test system: RPMI-8226
XF498 = test system: XF498
SK-MEL-5 = test system: SK-MEL-5
LOX IMVI = test system: LOX IMVI
SK-MEL-28 = test system: SK-MEL-28
SW-620 = test system: SW-620
ACHN = test system: ACHN
NCI-H23 = test system: NCI-H23
HCT-116 = test system: HCT-116
OVCAR-3 = test system: OVCAR-3
EKVX = test system: EKVX
HCC 2998 = test system: HCC 2998

For `Cc1ccc(NCCN(C)C)c2c(=O)c3cc(O)ccc3sc12`, the GI50 (UACC-62) was 2950 nM (inactive), the GI50 (DMS-114) was 11700 nM (inactive) and the GI50 (SF-268) was 4350 nM (inactive). The GI50 (MDA-MB-435) was 1530 nM (inactive), the GI50 (A549) was 214 nM (active) and the GI50 (SNB-75) was 1340 nM (inactive). For the same compound, the GI50 (HL-60) was 416 nM (active), the GI50 (SF-295) was 5270 nM (inactive) and the GI50 (SF-539) was 3550 nM (inactive). The GI50 (TK-10) was 17600 nM (inactive), the GI50 (IGROV-1) was 4470 nM (inactive) and the GI50 (786-0) was 1940 nM (inactive). For the same compound, the GI50 (HOP-18) was 3640 nM (inactive), the GI50 (A498) was 6790 nM (inactive) and the GI50 (SNB-19) was 2640 nM (inactive). The GI50 (NCI-H460) was 51.6 nM (active), the GI50 (SN12C) was 1940 nM (inactive) and the GI50 (HOP-62) was 586 nM (active). The GI50 (RXF 393) was 1220 nM (inactive), the GI50 (DMS-273) was 1050 nM (active) and the GI50 (BT-549) was 5400 nM (inactive). For the same compound, the GI50 (COLO 205) was 8850 nM (inactive), the GI50 (DLD-1) was 6610 nM (inactive) and the GI50 (Malme-3M) was 5280 nM (inactive). For the same compound, the GI50 (SR) was 241 nM (active), the GI50 (U-251) was 1630 nM (inactive) and the GI50 (SK-MEL-2) was 20500 nM (inactive). The GI50 (M19-MEL) was 10400 nM (inactive), the GI50 (PC-3) was 1220 nM (inactive) and the GI50 (MCF7) was 177 nM (active). The GI50 (K562) was 1500 nM (inactive), the GI50 (SNB-78) was 15600 nM (inactive) and the GI50 (CCRF-CEM) was 284 nM (active). The GI50 (KM-20L2) was 8870 nM (inactive), the GI50 (OVCAR-8) was 2440 nM (inactive) and the GI50 (T47D) was 7910 nM (inactive). For the same compound, the GI50 (DU-145) was 2180 nM (inactive), the GI50 (Hs-578T) was 933 nM (active) and the GI50 (UO-31) was 4230 nM (inactive). For the same compound, the GI50 (KM12) was 4280 nM (inactive), the GI50 (MDA-MB-231) was 1870 nM (inactive) and the GI50 (HT-29) was 2490 nM (inactive). The GI50 (CAKI-1) was 1310 nM (inactive), the GI50 (NCI-H522) was 4330 nM (inactive) and the GI50 (M14) was 4880 nM (inactive). The GI50 (OVCAR-5) was 15300 nM (inactive), the GI50 (MDA-N) was 2040 nM (inactive) and the GI50 (HCT-15) was 2690 nM. For the same compound, the GI50 (NCI-H226) was 4480 nM (inactive), the GI50 (OVCAR-4) was 7210 nM (inactive) and the GI50 (MOLT-4) was 45.4 nM (active). For the same compound, the GI50 (SK-OV-3) was 3330 nM (inactive), the GI50 (HOP-92) was 2380 nM (inactive) and the GI50 (LXFL 529) was 8180 nM (inactive). The GI50 (UACC-257) was 8000 nM (inactive), the GI50 (RPMI-8226) was 2570 nM (inactive) and the GI50 (XF498) was 4120 nM (inactive). The GI50 (SK-MEL-5) was 2860 nM (inactive), the GI50 (LOX IMVI) was 1050 nM (active) and the GI50 (SK-MEL-28) was 6010 nM (inactive). The GI50 (SW-620) was 1190 nM (inactive), the GI50 (ACHN) was 1000 nM (active) and the GI50 (NCI-H23) was 2220 nM (inactive). For the same compound, the GI50 (HCT-116) was 1960 nM (inactive), the GI50 (OVCAR-3) was 9330 nM (inactive) and the GI50 (EKVX) was 12400 nM (inactive). For the same compound, the GI50 (HCC 2998) was 3790 nM (inactive).
